Source: patent publication US9580451B2, “Sulfonic esters of metal oxides and methods of their use” (California Institute of Technology, priority 2013, dated 2017)

Assay: Relative fluorescence quantum yield measurement
Assay type: physicochemical
Conditions: degassed toluene, tetraphenylporphyrin as standard
Method: The Φem measurements were performed using degassed toluene solutions of 1,1-Al, 1-Ga, and tetraphenylporphyrin (as a standard). Samples were excited at λex=355 nm and the emission was observed from λem=500-800 nm. The standard tetraphenylporphyrin was excited at λex=514 nm and the emission was observed from λem=500-800 nm. Φem for tetraphenylporphyrin is 0.11.3 All relative fluorescence quantum yields were calculated based on the corresponding fluorescence spectra of the samples and the standard according to the equation: […]
where Φem(s) and Φem(x) are the relative fluorescence quantum yield of the standard and sample, respectively; As and Ax are the absorbance at the excitation wavelength for the standard and sample, respectively; Fs and Fx are the area under the corrected emission curve for the standard and sample, respectively; and ηs and ηx are the refractive index of the solvent used for the standard and sample, respectively.

φem, relative emission quantum yield: 0.094
Compound: O=S(=O)(Cl)C1=Cc2nc1c(-c1c(F)c(F)c(F)c(F)c1F)c1ccc([nH]1)c(-c1c(F)c(F)c(F)c(F)c1F)c1ccc([nH]1)c(-c1c(F)c(F)c(F)c(F)c1F)c1cc(S(=O)(=O)Cl)c2[nH]1 [compound 1, 2,17-bischlorosulfonato-5,10,15-tris(pentafluorophenyl)corrole]
